“And” between values parts separate entries of the source, which are not always exact repeats. Equal entries are not always repeated.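 These data come from cells grown in 96-well plates and exposed to compound for 48 hours at five concentrations. GI50 = concentration required for 50% inhibition of growth. The concentration for full growth arrest is given as TGI.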
Experiments:
Experiment in all cases: NCI tumour cell line growth inhibition, 48 h
DMS 114 small cell lung = tested on: DMS 114 small cell lung
LXFL 529 NSCLC = tested on: LXFL 529 NSCLC
M19-MEL melanoma = tested on: M19-MEL melanoma
SNB-78 CNS = tested on: SNB-78 CNS
DLD-1 colon = tested on: DLD-1 colon
HOP-18 NSCLC = tested on: HOP-18 NSCLC
RXF-631 renal = tested on: RXF-631 renal
XF 498 CNS = tested on: XF 498 CNS
MDA-N = tested on: MDA-N
P388/ADR leukemia = tested on: P388/ADR leukemia
SN12K1 renal = tested on: SN12K1 renal

Structure (SMILES)	TGI (DMS 114 small cell lung)	TGI (LXFL 529 NSCLC) [µM]	TGI (M19-MEL melanoma)	TGI (SNB-78 CNS)	TGI (DLD-1 colon)	TGI (HOP-18 NSCLC) [µM]	TGI (RXF-631 renal) [µM]	TGI (XF 498 CNS) [µM]	further results
CCCCCCCCCC(=O)OCC1OC(n2cc(F)c(=O)[nH]c2=O)C(N)C(OC(=O)CCCCCCCCC)C1O (centres undefined)	29.6 µM	30.2	31.2 µM	36.8 µM	–	–	–	–	–
Clc1ccc2nc(CCSCCc3nc4ccc(Cl)cc4[nH]3)[nH]c2c1	–	19	27.4 µM	–	33.8 µM	37	21.6	27.5	–
COC(=O)C#Cc1ccc([N+](=O)[O-])cc1	–	–	–	–	–	–	–	–	TGI (MDA-N): 8.27 µM
O=C(O)/C(Cl)=C(\Cl)C(=O)Nc1ccccc1	–	> 100	> 100 µM	> 100 µM	> 100 µM	> 100	> 100	–	–
Nc1nc(N)c(-c2ccc(Cl)cc2)c(CCC(=O)Nc2cccc(C(F)(F)F)c2)n1	> 100 µM	> 100	–	> 100 µM	> 100 µM	> 100	> 100	> 100	–
COc1ccc2c(c1)[n+]([O-])c(-c1nc3ccccc3s1)c(N)[n+]2[O-]	–	> 100	> 100 µM	> 100 µM	> 100 µM	> 100	> 100	–	–
CC12CC3CC(C)(C1)CC(N=[N+]=[N-])(C3)C2	> 100 µM	> 100	> 100 µM	> 100 µM	> 100 µM	> 100	–	> 100	–
COC(=O)C1C(=O)O[C@@H](c2ccc(OC)cc2OC)C1C(=O)OC (some centres undefined)	> 100 µM	> 100	> 100 µM	> 100 µM	> 100 µM	> 100	–	> 100	–
CN(CCC(=O)O)S(=O)(=O)c1ccccc1	–	–	–	–	–	–	–	–	TGI (MDA-N): > 100 µM
O=C(O)c1cccc(CC(Br)C(=O)O)c1 (centres undefined)	–	–	–	–	–	–	–	–	TGI (MDA-N): > 100 µM
CN=S(=O)(C[C@]1(O)CC2OC1C1OC(C)(C)OC21)c1ccccc1 (some centres undefined)	> 100 µM	> 100	> 100 µM	> 100 µM	–	–	–	> 100	–
CCN(CC)c1ccc2c(c1)N=C1N=CC=CN1C2(c1ccc(N(C)C)cc1)c1ccc(N(C)C)cc1	–	12.3	19.3 µM	39.5 µM	17.9 µM	12	19.4	12.6	–
O=C(C=Nc1ccccc1C(=O)[O-])c1cccs1.O=C(C=Nc1ccccc1C(=O)[O-])c1cccs1.[Cu+2]	–	–	> 100 µM	–	> 10 µM	–	–	–	GI50 (M19-MEL melanoma): 39700 nM
CCCCCCCCCCCC(=O)OCC1OC(n2cc(F)c(=O)[nH]c2=O)C(N)C(O)C1O (centres undefined)	> 100 µM	> 100	> 100 µM	> 100 µM	> 100 µM	> 100	–	–	–
Nc1nccc(Nc2ccc(S(N)(=O)=O)cc2)n1	–	–	–	–	–	–	–	–	TGI (MDA-N): > 100 µM
O=C(CC(=O)C(F)(F)F)c1csc2ccccc12	> 100 µM	> 100	> 100 µM	> 100 µM	–	–	–	–	–
COC(=O)C1=CC2OC13CC1CCC3(C2=O)C1(C)C (centres undefined)	20.3 µM	16.7	24.5 µM	36.5 µM	–	24	28	13.4	–
CCC[CH2][Sn]([CH2]CCC)([S]C1=NCCS1)[S]C1=NCCS1	0.435 µM	0.169	1.45 µM	0.946 µM	1.31 µM	2.33	–	0.678	GI50 (DLD-1 colon): 275 nM; GI50 (DMS 114 small cell lung): 117 nM; GI50 (HOP-18 NSCLC): 1120 nM; GI50 (LXFL 529 NSCLC): 42.3 nM; GI50 (M19-MEL melanoma): 268 nM; GI50 (SNB-78 CNS): 0.124 µM; GI50 (XF 498 CNS): 159 nM
ON(CCc1ccccn1)Cc1ccccc1	–	–	–	–	–	–	–	–	TGI (MDA-N): > 100 µM
Nc1ccn([C@@H]2C=C(CO)[C@@H](O)[C@H]2O)c(=O)n1	449 µM and > 625 µM	–	244 µM and > 625 µM	156 µM and > 625 µM	500 µM and > 625 µM	500	–	–	GI50 (DLD-1 colon): 62.5 nM; GI50 (DMS 114 small cell lung): 67.7 nM; GI50 (M19-MEL melanoma): 275 nM; GI50 (MDA-N): 50 nM; TGI (MDA-N): 500 µM; TGI (P388/ADR leukemia): 2190 nM; GI50 (SN12K1 renal): 62.5 nM; TGI (SN12K1 renal): 83.8 µM and 160 µM; GI50 (SNB-78 CNS): 63.6 µM; GI50 (XF 498 CNS): < 62.5 nM

Structure (SMILES)	TGI (DMS 114 small cell lung)	TGI (LXFL 529 NSCLC) [µM]	TGI (M19-MEL melanoma)	TGI (SNB-78 CNS)	TGI (DLD-1 colon)	TGI (HOP-18 NSCLC) [µM]	TGI (RXF-631 renal) [µM]	TGI (XF 498 CNS) [µM]	further results
Cc1cc(C)n(-c2c(O)ccc(O)c2-n2nc(C)cc2C)n1	> 100 µM	> 100	> 100 µM	> 100 µM	> 100 µM	–	> 100	> 100	–
CC(=O)Nc1ccc(/C=C/C(=O)c2sc(C(N)=S)nc2C)cc1	> 100 µM	–	> 100 µM	> 100 µM	> 100 µM	> 100	–	–	–
CNC1C(O)CC(OC2C/C=C(\C)C/C(C)=C/C=C/CCC(C)CNC(=O)/C=C/C=C/C2C)OC1C (centres undefined)	0.402 µM	0.308	1.68 µM	3.43 µM	1.45 µM	3.08	0.401	3.76	TGI (MDA-N): 0.367 µM
Cn1c2cccc3nnc4cccc(c4c32)n1C	> 100 µM	> 100	> 100 µM	> 100 µM	> 100 µM	–	> 100	> 100	–
COC(=O)C1=CC2OC1(C)C1(CC1)C2=O (centres undefined)	–	32.9	51.7 µM	–	37.3 µM	–	–	28.1	–
O=C1c2ccccc2C(=O)c2nc(-c3ccccc3)c(-c3ccccc3)nc21	> 100 µM	> 100	2.02 µM	> 100 µM	> 100 µM	> 100	> 100	> 100	–
COC(=O)C(=O)C(C(=O)C(=O)Nc1cc([N+](=O)[O-])ccc1[N+](=O)[O-])c1nc2ccc(C(=O)c3ccccc3)cc2[nH]c1=O (centres undefined)	66.5 µM	57.9	> 100 µM	58.6 µM	> 100 µM	95.1	> 100	30.9	–
CCC(=C(c1ccc(OCc2ccccc2)cc1)c1ccc(OCc2ccccc2)cc1)c1ccc(OC)cc1	> 100 µM	> 100	> 100 µM	> 100 µM	> 100 µM	–	–	> 100	–
Cc1ccc(S(=O)(=O)N/N=C(\C(=O)Nc2cccc([N+](=O)[O-])c2)c2nc3ccc([N+](=O)[O-])cc3[nH]c2=O)cc1	99.1 µM	> 100	> 100 µM	> 100 µM	> 100 µM	–	–	–	–
COc1ccc(OC)c2cc(C3(C)SCCCS3)ccc12	> 100 µM	> 100	> 100 µM	> 100 µM	> 100 µM	> 100	–	> 100	–
CCOC(=O)c1cc2ncccc2c2ccccc12	–	–	–	–	–	–	–	–	TGI (MDA-N): > 100 µM
CC1C(=O)N(C)C2(CO)C(=O)O[C@H](C)C12O (some centres undefined)	> 100 µM	–	> 100 µM	> 100 µM	> 100 µM	> 100	–	–	–
Cc1ccc2[nH]c(=O)c(C(C#N)c3ccccc3)nc2c1 (centres undefined)	–	> 100	–	80.1 µM	> 100 µM	> 100	> 100	–	–
CC(C)(O)[C@H]1[C@@H]2OC(=O)[C@H]1[C@]1(O)C[C@H]3OC34C(=O)O[C@H]2[C@@]41C (some centres undefined) (tested in a mixture with another compound)	–	–	–	–	–	–	–	–	TGI (MDA-N): > 100 µM
CCOC(=O)C1=C(C)N(NC(=O)c2ccccc2)C2(O)CCCC12C(=O)OCC (centres undefined)	> 100 µM	> 100	> 100 µM	–	–	–	> 100	> 100	–
CC1C2=CC=C(O2)C(C)(C)C2=CC=C(O2)C(C)(C)C2=CC=C(O2)C(C)(C)C2=CC=C1O2	–	> 100	> 100 µM	> 100 µM	–	> 100	–	> 100	–
O=C(O)CC1(C(=O)O)CCCCC1	–	–	–	–	–	–	–	–	TGI (MDA-N): > 100 µM
Cc1ccc(C2=NO[C@@H]3C(=O)N(c4ccc(Cc5ccc(N6C(=O)[C@H]7C(c8ccc(C)cc8)=NO[C@H]7C6=O)cc5)cc4)C(=O)[C@H]23)cc1	> 100 µM	> 100	> 100 µM	> 100 µM	> 100 µM	> 100	> 100	> 100	–
O=C(NCC#CCO)C(F)(F)F	> 100 µM	–	–	> 100 µM	> 100 µM	–	> 100	> 100	–
O=C(CC1(O)C(=O)Nc2c(Cl)cc(Cl)cc21)c1ccc2ccccc2c1 (centres undefined)	17.8 µM	21.3	16.3 µM	36.5 µM	26.7 µM	26.1	20.6	25.2	–
